Legend:
PBMCs = experiment: VPD450 proliferation test (flow cytometry) on PBMCs; format: cell-based, human; conditions: for EC50: Homo sapiens, PBMC, PBMCs stimulated with anti-CD3/anti-CD28 beads, 72 h, mean ± SD; for SI selectivity index PBMCs (IC50/EC50): ratio between IC50 (XTT) and EC50 (VPD450) on PBMCs
Procedure: These values indicate the concentration of any compound at which proliferation of PBMCs (healthy cells), and T-Jurkat cells (T-cell leukemia), is inhibited by 50% compared to the control. Cells were treated with the compounds for 72 h (PBMCs) or 48 h (T-Jurkat), followed by a […] VPD450 test. The results are presented in ESI Fig. S3 as proliferation curves concerning concentration.
ESI Figure 3. Concentration-dependent change in proliferation under the treatment of ester derivatives of MPA. (A) VPD450-labelled PBMCs were cultured in the presence of different concentrations (100; 50; 25; 10; 1; 0.1, and 0.01 μM) of MPA, MMF, and ester derivatives, and stimulated with magnetic beads coated with anti-CD3 and anti-CD28 antibodies for 72 hours. (B) VPD450-labelled T-Jurkat cells were cultured in the presence of different concentrations (100; 10; 1; 0.1 and 0.01 μM) of MPA and ester derivatives for 48 hours. The plots were separated based on the type of ester derivative (P or MP). Cell proliferation was analyzed using flow cytometry. The results are expressed […]
(§1) (1 picture or pasted object on this page, not shown here) […]
(§2) inhibited cell viability by more than 50%. Each experiment was conducted in triplicate, and the final […]
(§3) VPD450 dye-based in vitro cell proliferation test
PBMCs and T-Jurkat cells were washed twice with warm PBS (37°C), re-suspended in fresh PBS at a final concentration of 10-30∙10^6 cells/ml, and labelled with 1 µl of VPD450 (BD Biosciences) at 37°C for 15 minutes, with vortexing every 5 minutes to ensure uniform staining. Subsequently, cells were washed with PBS, then with the complete medium (X-VIVO20 for PBMCs and RPMI-1640 for T-Jurkat cells), next re-suspended in fresh complete medium and seeded into 96-well plates at a concentration of 1∙10^6 cells per well. PBMCs were additionally stimulated with magnetic beads coated with anti-CD3 and anti-CD28 antibodies (Invitrogen) at a 2:1 cell-to-bead ratio. To the experimental wells, 100 µl of the MPA derivatives were added to achieve final concentrations of 50, 25, 10, 5, 1, 0.1, and 0.01 µM. In parallel, control wells containing stained but unstimulated cells and stained, stimulated cells were prepared at the same concentration. Cell proliferation was analyzed using an LSRFortessa flow cytometer (BD Biosciences) and Kaluza C Flow Cytometry Analysis Software (Beckman Coulter). […]
(§4) Statistical analysis was conducted using GraphPad Prism 9 (GraphPad Software Inc).
(§5) Differences between MMF, MPA and its new derivatives were assessed using a two-tailed unpaired Student’s t-test, with statistical significance defined as p < 0.05. EC50 and IC50 values were determined by fitting data to a four-parameter non-linear regression model in GraphPad Prism 9. Statistical significance was evaluated using the t-test.

[1] = tested on: IMPDH (PBMC proliferation); experiment: GMP test: PBMC proliferation with or without guanosine source (IMPDH inhibition); format: cell-based, human; conditions: for PBMC proliferation upon GMP addition (reversal of inhibition): with 50 µM GMP
Procedure: ESI Figure 4. Antiproliferative activity of MPA, MMF, and various esters of MPA in the presence of guanosine source — role of IMPDH inhibiton. VPD450-labeled human PBMCs, in the presence of different concentrations (50; 25; 10; 1, and 0.1 μM) of MPA, MMF, and esters, and stimulated (magnetic beads coated with anti-CD3 and anti-CD28 antibodies) were cultured with or without the addition of 50 μM GMP for 72 h. Cell proliferation was analyzed […]
as §1, §2, §3
PBMCs and T-Jurkat cells were washed twice with warm PBS (37°C), re-suspended in fresh PBS at a final concentration of 10-30∙10^6 cells/ml, and labelled with 1 µl of VPD450 (BD Biosciences) at 37°C for 15 minutes, with vortexing every 5 minutes to ensure uniform staining. Subsequently, cells were washed with PBS, then with the complete medium (X-VIVO20 for PBMCs and RPMI-1640 for T-Jurkat cells), next re-suspended in fresh complete medium and seeded into 96-well plates at a concentration of 1∙10^6 cells per well. PBMCs were additionally stimulated with magnetic beads coated with anti-CD3 and anti-CD28 antibodies (Invitrogen) at a 2:1 cell-to-bead ratio. To the experimental wells, 100 µl of the MPA derivatives were added to achieve final concentrations of 50, 25, 10, 5, 1, 0.1, and 0.01 µM. In parallel, control wells containing stained but unstimulated cells and stained, stimulated cells were prepared at the same concentration. Cell proliferation was analyzed using an LSRFortessa flow cytometer (BD Biosciences) and Kaluza C Flow Cytometry Analysis Software (Beckman Coulter).
The data were expressed as EC50 values for compounds that inhibited more than 50% of cell […]
Enzyme inhibition in the presence of guanosine source (GMP test)
PBMCs were suspended in a 15 mL centrifuge tube at a concentration of 10-30 × 10⁶ cells in 1 mL of PBS, then, 2 μL of 1 mM VPD 450 dye solution was added, incubated for 15 min at 37°C, washed with a 9-fold volume of warm PBS and centrifuged at 400 x g for 5 min. Then, the cells were suspended in 10 mL of X-VIVO medium with 10% FBS and centrifuged again at 400 x g for 5 min. After suspending the cells in the complete medium, the staining level was checked using flow cytometry. The cells thus obtained were stimulated with anti-CD3/anti-CD28 antibodies as described previously (see VPD450 dye-based in vitro cell proliferation test). To perform the GMP test, a proper amount of GMP was added to each well to reach its final concentration of 50 μM, and then incubated for 72 hours. Proliferative activity was tested in the presence of various concentrations of compounds (50; 25; 10; 1 and 0.1 μM; MPA and selected amide derivatives) or without their addition. Cell proliferation was assessed using […]
as §4, §5

Row | Compound | EC50 (PBMCs) | SI selectivity index PBMCs (IC50/EC50) (PBMCs) | Inhibition of PBMC proliferation ([1]; 50 µM compound, without GMP, 72 h) | PBMC proliferation upon GMP addition (reversal of inhibition) ([1]; 50 µM compound, 72 h) | Inhibition of PBMC proliferation ([1]; 50 µM) | inhibition at 50 µM ([1]; Homo sapiens, PBMC, 50 µM compound, without GMP, 72 h)
1 | COc1c(C)c2c(c(O)c1C/C=C(\C)CCC(=O)OCCN1CCOCC1)C(=O)OC2 [MMF, mycophenolate mofetil, reference compound] | 1037 ± 6 nM | 16.020 | near-complete inhibition | – | – | –
2 | COc1ccccc1OC(=O)CC/C(C)=C/Cc1c(O)c2c(c(C)c1OC)COC2=O [MP1] | 1106 ± 4 nM | 13.365 | – | – | – | –
3 | COc1cccc(OC)c1OC(=O)CC/C(C)=C/Cc1c(O)c2c(c(C)c1OC)COC2=O [MP2] | 5395 ± 6 nM | 4.174 | – | – | – | –
4 | COc1cc(C=O)cc(OC)c1OC(=O)CC/C(C)=C/Cc1c(O)c2c(c(C)c1OC)COC2=O [MP3] | 13742 ± 5 nM | 0.770 | – | – | – | –
5 | COc1cc(C=O)ccc1OC(=O)CC/C(C)=C/Cc1c(O)c2c(c(C)c1OC)COC2=O [MP4] | 2900 ± 5 nM | 8.098 | – | – | – | –
6 | COC(=O)/C=C/c1ccc(OC(=O)CC/C(C)=C/Cc2c(O)c3c(c(C)c2OC)COC3=O)c(OC)c1 [MP7] | 7734 ± 7 nM | 3.935 | – | – | – | –
7 | C=CCc1ccc(OC(=O)CC/C(C)=C/Cc2c(O)c3c(c(C)c2OC)COC3=O)c(OC)c1 [MP8] | 1154 ± 3 nM | 15.409 | – | – | – | –
8 | C/C=C/c1ccc(OC(=O)CC/C(C)=C/Cc2c(O)c3c(c(C)c2OC)COC3=O)c(OC)c1 [MP9] | 2356 ± 3 nM | 8.978 | – | comparable pattern | – | –
9 | COc1c(C)c2c(c(O)c1C/C=C(\C)CCC(=O)O)C(=O)OC2 [MPA, Mycophenolic acid] | 1154 ± 6 nM | 16.232 | – | – | near-complete inhibition | –
10 | COc1c(C)c2c(c(O)c1C/C=C(\C)CCC(=O)Oc1ccc3c(c1)OCO3)C(=O)OC2 [P1] | 1152 ± 4 nM | 108.919 | – | reversed | – | ~80%
11 | COc1c(C)c2c(c(O)c1C/C=C(\C)CCC(=O)Oc1cc(C)ccc1C(C)C)C(=O)OC2 [P2] | 1417 ± 3 nM | 11.538 | – | – | – | –
12 | COC(=O)/C=C/c1ccccc1OC(=O)CC/C(C)=C/Cc1c(O)c2c(c(C)c1OC)COC2=O [P4] | 4865 ± 4 nM | 5.321 | – | comparable pattern | – | –
13 | COc1c(C)c2c(c(O)c1C/C=C(\C)CCC(=O)Oc1ccc(C=O)cc1)C(=O)OC2 [P5] | 1656 ± 3 nM | 6.007 | – | – | – | –
14 | COc1c(C)c2c(c(O)c1C/C=C(\C)CCC(=O)Oc1ccc(CCC(C)=O)cc1)C(=O)OC2 [P7] | 1047 ± 6 nM | 48.036 | – | comparable pattern | – | –

Reference: article PMC12271471, “Direct synthesis of mycophenolic acid aryl esters with antioxidant and antiproliferative properties” (Scientific Reports, 2025)
